Laboratory results: ChEMBL document CHEMBL1156590, “Stereoselectivity of binding of alpha-(N-benzylamino)benzylphosphonic acids to prostatic acid phosphatase” (Bioorg Med Chem Lett, 2008)

The compounds below were run against T1, Prostatic acid phosphatase (Homo sapiens, UniProt P15309) (assay: Inhibition of human prostatic acid phosphatase).
T1 sequence (P15309 whole entry): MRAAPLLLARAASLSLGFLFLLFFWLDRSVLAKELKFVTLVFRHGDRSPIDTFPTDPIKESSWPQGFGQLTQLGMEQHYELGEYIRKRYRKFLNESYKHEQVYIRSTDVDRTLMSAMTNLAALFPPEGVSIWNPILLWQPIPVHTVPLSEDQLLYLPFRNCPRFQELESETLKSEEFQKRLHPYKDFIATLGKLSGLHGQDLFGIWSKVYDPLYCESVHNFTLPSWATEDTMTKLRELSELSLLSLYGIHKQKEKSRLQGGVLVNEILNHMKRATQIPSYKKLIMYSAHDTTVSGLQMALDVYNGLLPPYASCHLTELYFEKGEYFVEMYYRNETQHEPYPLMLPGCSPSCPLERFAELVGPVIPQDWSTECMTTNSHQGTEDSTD
In the case of `C[C@H](N[C@@H](c1ccccc1)P(=O)(O)O)c1ccccc1`, the IC50 is reported as 1210 nM.
`C[C@@H](N[C@H](c1ccccc1)P(=O)(O)O)c1ccccc1` was tested, and the IC50 was 26 nM.
Work on `COc1ccc([C@@H](N[C@H](C)c2ccccc2)P(=O)(O)O)cc1` yielded an IC50 of 18 nM.
`COc1ccc([C@H](N[C@@H](C)c2ccccc2)P(=O)(O)O)cc1` showed an IC50 of 1070 nM.
